Measurements reported in patent US20220110916A1, “Antioxidant and Use Thereof” (Bioradical Research Institute Corp., priority 2019, published 2022).
Blank lines part the entries; values can stand above or below the compound they belong to.

Experiments:
[1] = Water solubility noted at synthesis; format: physicochemical; details: crystal obtained in Example 1
Method: 3.58 g of 3-methyl-1-phenyl-5-pyrazolone (hereinafter, also referred to as “edaravone”), 2.59 g of malonaldehyde dianilide hydrochloride, and 20 ml of ethanol were added to a reactor and dissolved. To the obtained solution, 2.04 g of triethylamine and 0.4 ml of water were added and stirred for 1 hour at room temperature (about 25° C., hereinafter, the same applies). After the stirring, the resultant was further reacted for 1 hour at 50° C. After discharging the obtained reaction solution to 100 ml of 1N hydrochloric acid, the mixture was sufficiently stirred and the precipitate was filtered. The resulting cake was washed with water. The cake was added to 200 ml of an aqueous sodium hydroxide solution having a 1% by weight concentration and completely dissolved by heating with stirring. Next, the dissolved solution was stirred for 3 hours after cooling to room temperature. Then, the liquid containing the obtained precipitate was filtered, and then the cake was washed with water. […] Note that the melting point of ED2AP was 249° C., which was water-soluble.
3 ml of dimethylformamide was added to a reactor and the exterior of the reactor was cooled with ice water. 1.75 g of phosphorus oxychloride was slowly dropped into the reactor (Reaction Solution A). In another reactor, 1.78 g of edaravone was dissolved in 5 ml of dimethylformamide (Reaction Solution B). Under room temperature, the reaction solution B was slowly added to the reaction solution A, and the resulting mixture was allowed to react for 1 hour with the end of addition (Reaction Solution C) being a reference. In another reactor, 1.81 g of 3-methyl-1-phenyl-5-pyrazolone was added to 8 ml of chloroform and dissolved (Reaction Solution D). Under room temperature, the reaction solution C was slowly added to the reaction solution D, followed by stirring for 20 minutes and further stirring at 70° C. for 1 hour. To the resultant, 0.2 g of water was added and stirred for another 2 hours. The obtained reaction solution was discharged into 100 ml of water and extracted with a mixed solvent of toluene/ethyl acetate=1/1 (volume ratio). After condensation of the obtained extract, column purification was performed to obtain 2.92 g of yellow crystal of the compound of the formula (10) having the following physical properties.
1.00 g of edaravone, 0.72 g of paraformaldehyde, and 20 ml of formic acid were added to a reaction flask and stirred overnight for 20 hours at 70° C. The obtained reaction solution was discharged into 80 ml of water and extracted with a mixed solvent of toluene/ethyl acetate=1/1 (volume ratio). When the extract was condensed to about two-thirds, crystals were precipitated. Further, the resultant was cooled to room temperature, and sufficiently crystallized, and then filtered. The obtained cake was washed with toluene to obtain 0.88 g of pale yellow crystal of the compound of the formula (14) having the following physical properties.
In Example 1(1), synthesis was performed in the same manner as described above except that 3-methyl-1-ethyl-5-pyrazolone was used instead of edaravone to obtain red crystal of BisEp-C3 having the following physical properties. Note that BisEp-C3 was water-soluble.
In Example 1(2), synthesis was performed in the same manner as described above except that 3-methyl-1-ethyl-5-pyrazolone was used instead of edaravone to obtain yellow crystal of BisEp-C1 having the following physical properties. Note that BisEp-C1 was water-soluble.
In Example 1(3), synthesis was performed in the same manner as described above except that 3-methyl-1-ethyl-5-pyrazolone was used instead of edaravone, then the obtained reaction solution was condensed, and the resultant was subjected to column purification to obtain colorless crystal of BisEp-C1 (H2) having the following physical properties. Note that BisEp-C1 (H2) was water-soluble.

[2] = test system: neutrophils isolated from the peripheral blood of healthy individuals; experiment: Superoxide production amount of PMA-stimulated neutrophils, CLA chemiluminescence; format: cell-based, human; details: 0-200 μmol/l or 0-5000 μmol/l; PMA 100 ng/ml; control being 100; FIG. 2
Method: For examining the reactive oxygen-eliminating effect of the antioxidant of the present invention, the superoxide produced by the neutrophils when the neutrophils isolated from the peripheral blood of healthy individuals were stimulated with PMA (phorbor-12-myristate-13-acetate) was used. The superoxide production amount was measured by chemiluminescence using CLA (2-methyl-6-pjenyl-3, 7-dihydroimidazo[1,2-a]pyrazine-3-one).
(§1) First, ED2AP, BisEp-C3, edaravone, BisEp-C1, or BisEp-C1 (H2) was added to a neutrophil of 4×10^5 cells per sample so as to achieve a predetermined concentration (0, 12.5, 25, 50, 100, or 200 μmol/l, or 0, 125, 250, 500, 1250, 2500, or 5000 μmol/l) with 5 μmol of CLA, and then the cell suspension was seeded in flat-bottomed 96-well plates. The volume of the suspension was 200 μl/well, and phenol red free Ca+, Mg+ HBSS was used as the solution. In addition, the neutrophil was stimulated by adding PMA so as to achieve a concentration of 100 ng/ml. After the stimulation, a plate reader (Envision 2104 Multilabel Reader, produced by Perkin Elmer Co., Ltd.) was used to measure the chemiluminescence value over time for 30 minutes with the PMA stimulation time being a reference. The measurement interval was 30 seconds. The sum of the chemiluminescence values obtained every 30 seconds for 30 minutes was taken as the superoxide production amount. In addition, as a control, the superoxide production amount was measured in the same manner except that each compound was not added. The relative value of the superoxide production amount when each compound was added was calculated with the superoxide production amount of the control being 100.

[3] = Storage stability in pH7.4-PBS or pure water at 37° C. protected from light, residual rate by HPLC; format: physicochemical; details: 200 μmol/l; for Residual rate (%) After 1 week / Residual rate (%) After 2 weeks: 37° C., protected from light; for Residual rate (%) Initial concentration: initial concentration (reference 100%)
Method: The storage stability of edaravone, EMPO, ED2AP, and BisEp-C3 of the following formula (A) were examined. Specifically, edaravone, EMPO, ED2AP, and BisEp-C3 were dissolved in pH7.4-PBS or pure water so as to have a final concentration of 200 μmol/l to prepare dissolved solutions of these compounds. When the compounds were difficult to be dissolved, they were dissolved in an ultrasonic cleaner with warm water at 40° C.
Under the measurement conditions for HPLC described below, the initial concentration was quantified, and then each solution was stored in an oven, which was protected from light, at 37° C., and quantified under the same measurement conditions after 1 week and 2 weeks, to determine residual rate (%) with the initial concentration (100%) being a reference.
Measurement conditions for HPLC
PDA detector (Format: SPD-M20A) HPLC Assay Conditions:
Column: Atlantis dC18 5 μm (250×4.6 mm I.D.; produced by Waters)
Column temperature: 45° C.
Detection method: UV (254 nm)
Eluate A: pH3 buffer solution (adjusted to pH3 by adding phosphoric acid to 0.05M KH2PO4 aqueous solution)/methanol=90/10

rat neuroid cells B50 [4] = experiment: Alleviation of singlet oxygen (Rose Bengal + G-LED) cytotoxicity, Alamar Blue fluorescence; format: cell-based; details: 200 nmol/l RB + G-LED 5 minutes
Method: Edaravone, ED2AP and BisEp-C3 were examined whether they had the function of alleviating neuronopathy. Specifically, singlet oxygen was generated by combining Rose Bengal (RB), which is a sensitizer, with green light (G-LED), and the function of alleviating the cytotoxicity of the generated singlet oxygen was examined with the cellular activity being an indicator.
First, rat neuroid cells B50 were cultured in 12-well dishes at 2×10^5 cells/well (medium: RPMI-1640 medium containing 5% FCS) overnight. After the culturing, the medium of each well was replaced with HBSS (1000 μl/well; phenol red free Ca+, Mg+) containing 200 nmol/l RB and edaravone, ED2AP, or BisEp-C3 having a predetermined concentration (0, 12.5, 25, 50, or 100 μmol/l). The dish was then irradiated with G-LED for 5 minutes to generate singlet oxygen. Thereafter, the medium of each well was replaced with 1000 μl of HBSS and Alamar Blue was added. The dish was then allowed to react for about 2 hours in an incubator at 37° C. and 5% CO2. After the reaction, fluorescence intensity (excitation wavelength: λ-560 nm, fluorescence wavelength: λ-595 nm) was measured with a plate reader (infinite200, Tecan Trading AG). In this experimental system, the higher the cellular activity, the more Alamar Blue is taken up and the higher the fluorescence intensity. As a control, fluorescence intensity was measured in the same manner except that sodium azide (Azide, NaN3) was added instead of the compounds so as to achieve a concentration of 4 mmol/l. As a negative control (NC), fluorescence intensity was measured in the same manner except that RB was not added. The relative value of the fluorescence intensity in the sample to which each compound was added was calculated with the fluorescence intensity of the negative control being 100.

[5] = test system: neutrophils isolated from the peripheral blood of healthy individuals; experiment: Superoxide production amount of PMA-stimulated neutrophils with PBS solutions stored for 10 days vs immediately after preparation; format: cell-based, human; details: PBS solution stored for 10 days vs immediately after preparation; 0, 6.25, 12.5, 25, 50, 100 or 20 μmol/l; FIG. 4
Method: as §1
PBS solutions of ED2AP, BisEp-C3, and edaravone were prepared in the same manner as in Example 2 and stored for 10 days. The superoxide production amount was calculated in the same manner as in Example 4 except that the PBS solution after storage was added instead of ED2AP, BisEp-C3, edaravone, BisEp-C1 or BisEp-C1 (H2) so as to achieve a predetermined concentration (0, 6.25, 12.5, 25, 50, 100 or 20 μmol/l) of ED2AP, BisEp-C3 or edaravone. Further, PBS solutions of ED2AP, BisEp-C3, and edaravone were prepared in the same manner as in Example 2, and the superoxide production amount was calculated in the same manner except that the PBS solution immediately after preparation was used. Then, the relative value of the superoxide production amount of each sample was calculated with the superoxide production amount of the sample of 0 μmol/l being 100.

rat neuroid cells B50 [6] = experiment: Toxicity evaluation, cell viability by Alamar Blue after 24 hours; format: cell-based; details: 12.5, 25, 50, 100, or 200 μmol/l, FIG. 5
Method: Rat neuroid cells B50 were seeded in 12-well plates and then cultured. Edaravone (RC), ED2AP, or BisEp-C3 was added to each well so as to achieve a predetermined concentration (12.5, 25, 50, 100, or 200 μmol/l), and then incubated for 24 hours at 37° C. and 5% CO2. Cell viability in each well after the culture was measured using Alamar Blue.

rat neuroid cells B50 [7] = experiment: Toxicity evaluation on byproducts after reaction with singlet oxygen, cell viability; format: cell-based; details: 50, 100, or 200 μmol/l reacted with RB + G-LED 525 nm in cell-free system; FIG. 6
Method: In a cell-free system, the RB was added to media (50% FCS-containing RPMI-1640 media) containing edaravone, ED2AP, and BisEp-C3 having a predetermined concentration (50, 100, or 200 μmol/l) and then irradiated with LED (G-LED) at 525 nm to generate singlet oxygen, whereby reacting each compound with singlet oxygen. The cell viability was measured in the same manner as in Example 7(1), except that the culture solution after the reaction was used as a medium of the neuroid cell B50. As a negative control (NC), the cell viability was measured in the same manner except that each compound and […] were not added in the cell-free system. Further, as a control (RB), the cell viability was measured in the same manner except that each compound was not added and only […] was added in the cell-free system.

SMILES: CCn1nc(C)c(Cc2c(C)nn(CC)c2O)c1O [BisEp-C1 (H2), 4,4′-methylenebis[1-ethyl-3-methyl-1H-pyrazol-5-ol]]
solubility in water [1]: water-soluble
relative value of the superoxide production amount [2]: suppressed the superoxide production amount in a concentration-dependent manner

SMILES: CCN1N=C(C)/C(=C/c2c(C)nn(CC)c2O)C1=O [BisEp-C1]
solubility in water [1]: water-soluble
relative value of the superoxide production amount [2]: suppressed the superoxide production amount in a concentration-dependent manner

SMILES: CCN1N=C(C)CC1=O [EMPO, reference compound]
Residual rate (%) After 1 week ([3]; Pure water): 6.3%
Residual rate (%) After 2 weeks ([3]; Pure water): 1.4%
Residual rate (%) Initial concentration ([3]; Pure water): 100%
Residual rate (%) After 1 week ([3]; pH 7.4-PBS): 0.0%
Residual rate (%) After 2 weeks ([3]; pH 7.4-PBS): 0.0%
Residual rate (%) Initial concentration ([3]; pH 7.4-PBS): 100%

SMILES: [N-]=[N+]=[N-] [sodium azide, reference compound]
relative value of the fluorescence intensity (rat neuroid cells B50 [4]; 4 mmol/l, negative control being 100, RB control 33.17): 80.81

More lines, main results first:

Residual rate (%) After 1 week ([3]; Pure water): 82.8%
Residual rate (%) After 2 weeks ([3]; Pure water): 80.4%
Residual rate (%) Initial concentration ([3]; Pure water): 100%
Residual rate (%) After 1 week ([3]; pH 7.4-PBS): 31.2%
Residual rate (%) After 2 weeks ([3]; pH 7.4-PBS): 0.2%
Residual rate (%) Initial concentration ([3]; pH 7.4-PBS): 100%
SMILES: CC1=NN(c2ccccc2)C(=O)C1 [Edaravone, 5-methyl-2-phenyl-2,4-dihydro-3H-pyrazol-3-one, reference compound]
relative value of the superoxide production amount [2]: suppressed the superoxide production amount in a concentration-dependent manner
recovery of the fluorescence intensity (cellular activity) (rat neuroid cells B50 [4]; 0, 12.5, 25, 50, or 100 μmol/l, FIG. 3): not recovered
superoxide-eliminating ability after storage [5]: remarkably lowered after storage for 10 days
cytotoxicity (cell viability) (rat neuroid cells B50 [6]): not cytotoxic at any concentration
cytotoxicity of the byproducts after reaction with singlet oxygen (cell viability) (rat neuroid cells B50 [7]): not cytotoxic at any concentration

solubility in water [1]: poorly soluble in water
SMILES: CC1=NN(c2ccccc2)C(=O)/C1=C\c1c(C)nn(-c2ccccc2)c1O [formula (10), 2,4-dihydro-4-[(5-hydroxy-3-methyl-1-phenyl-1H-pyrazol-4-yl)methylene]-5-methyl-2-phenyl-3H-pyrazol-3-one]

solubility in water [1]: poorly soluble in water
SMILES: Cc1nn(-c2ccccc2)c(O)c1Cc1c(C)nn(-c2ccccc2)c1O [formula (14), 4,4′-methylenebis[3-methyl-1-phenyl-1H-pyrazol-5-ol]]
